According to ChEMBL document CHEMBL5352439, “Design, synthesis, biological evaluation and molecular docking study of novel urea-based benzamide derivatives as potent poly(ADP-ribose) polymerase-1 (PARP-1) inhibitors” (Eur J Med Chem, 2022):

Columns and labels:
MDA-MB-231 [1] = test: Antiproliferative activity against human MDA-MB-231 cells assessed as inhibition of cell growth at 20 uM incubated for 48 hrs by MTT assay; assay type: functional
HCT-116 [2] = test: Antiproliferative activity against human HCT-116 cells assessed as inhibition of cell growth at 20 uM incubated for 48 hrs by MTT assay; assay type: functional
HeLa [3] = test: Antiproliferative activity against human HeLa cells assessed as inhibition of cell growth at 20 uM incubated for 48 hrs by MTT assay; assay type: functional
A549 [4] = test: Antiproliferative activity against human A549 cells assessed as inhibition of cell growth at 20 uM incubated for 48 hrs by MTT assay; assay type: functional
A-375 [5] = test: Antiproliferative activity against human A-375 cells assessed as inhibition of cell growth at 20 uM incubated for 48 hrs by MTT assay; assay type: functional
MDA-MB-231 [6] = test: Antiproliferative activity against human MDA-MB-231 cells assessed as inhibition of cell growth incubated for 48 hrs by MTT assay; assay type: functional, cell-based; details: MDA-MB-231, 48 h
HeLa [7] = test: Antiproliferative activity against human HeLa cells assessed as inhibition of cell growth incubated for 48 hrs by MTT assay; assay type: functional, cell-based
A549 [8] = test: Antiproliferative activity against human A549 cells assessed as inhibition of cell growth incubated for 48 hrs by MTT assay; assay type: functional, cell-based; details: A549, 48 h
A-375 [9] = test: Antiproliferative activity against human A-375 cells assessed as inhibition of cell growth incubated for 48 hrs by MTT assay; assay type: functional, cell-based; details: A-375, 48 h
HCT-116 [10] = test: Potency index, ratio of olaparib IC50 to test compound IC50 for antiproliferative activity against human HCT-116 cells; assay type: functional
L02 = test: Antiproliferative activity against human L02 cells assessed as inhibition of cell growth […] incubated for 48 hrs by MTT assay; assay type: functional, cell-based; details: L02, 48 h
[11] = biological target: Poly [ADP-ribose] polymerase 1 (Homo sapiens, UniProt P09874); test: Inhibition of PARP1 (unknown origin) by ELISA
Sequence of Poly [ADP-ribose] polymerase 1 (P09874 whole entry): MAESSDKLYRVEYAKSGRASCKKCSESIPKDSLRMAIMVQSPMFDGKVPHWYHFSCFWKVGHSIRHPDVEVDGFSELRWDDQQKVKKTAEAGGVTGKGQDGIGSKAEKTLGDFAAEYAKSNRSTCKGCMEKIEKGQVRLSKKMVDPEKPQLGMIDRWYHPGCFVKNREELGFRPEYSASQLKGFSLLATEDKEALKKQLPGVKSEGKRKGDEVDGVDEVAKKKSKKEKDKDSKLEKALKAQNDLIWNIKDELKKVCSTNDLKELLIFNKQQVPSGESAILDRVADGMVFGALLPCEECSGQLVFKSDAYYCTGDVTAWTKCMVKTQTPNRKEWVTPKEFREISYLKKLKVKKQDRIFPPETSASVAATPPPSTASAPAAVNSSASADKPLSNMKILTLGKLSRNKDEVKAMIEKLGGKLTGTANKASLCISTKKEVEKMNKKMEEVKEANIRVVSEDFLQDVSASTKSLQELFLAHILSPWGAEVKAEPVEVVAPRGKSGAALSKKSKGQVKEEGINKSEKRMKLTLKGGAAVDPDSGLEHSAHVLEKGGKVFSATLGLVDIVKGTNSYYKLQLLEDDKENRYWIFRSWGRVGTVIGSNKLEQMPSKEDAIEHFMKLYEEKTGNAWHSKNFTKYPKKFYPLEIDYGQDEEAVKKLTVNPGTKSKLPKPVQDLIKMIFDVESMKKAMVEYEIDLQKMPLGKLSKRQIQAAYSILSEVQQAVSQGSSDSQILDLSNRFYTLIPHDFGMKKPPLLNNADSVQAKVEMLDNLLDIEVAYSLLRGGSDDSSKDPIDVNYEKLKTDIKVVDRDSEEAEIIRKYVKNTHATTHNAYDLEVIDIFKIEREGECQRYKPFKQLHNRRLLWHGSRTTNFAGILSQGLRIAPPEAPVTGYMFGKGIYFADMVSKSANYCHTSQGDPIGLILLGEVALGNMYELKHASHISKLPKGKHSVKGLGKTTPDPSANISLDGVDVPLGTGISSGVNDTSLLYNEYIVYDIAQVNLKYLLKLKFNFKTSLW

HCT-116 [12] = test: Inhibition of colony formation in human HCT-116 cells measured every 3 days for 14 days by crystal violet staining based assay; assay type: functional, cell-based; details: dose 1.88-15 µM, time 14.0 day
HCT-116 [13] = test: Inhibition of colony formation in human HCT-116 cells at 7.5 uM measured every 3 days for 14 days by crystal violet staining based assay; assay type: functional; details: HCT-116, 336 h, time 14 day
HCT-116 [14] = test: Inhibition of colony formation in human HCT-116 cells at 10 uM measured every 3 days for 14 days by crystal violet staining based assay; assay type: functional; details: HCT-116, 336 h, time 14 day
HCT-116 [15] = test: Inhibition of cell migration in human HCT-116 cells at 10 uM incubated for 24 hrs by wound healing assay (reference value: 32.0 %); assay type: functional
HCT-116 [16] = test: Inhibition of cell migration in human HCT-116 cells at 10 uM incubated for 48 hrs by wound healing assay (reference value: 42.8 %); assay type: functional
HCT-116 [17] = test: Inhibition of cell migration in human HCT-116 cells at 20 uM incubated for 24 hrs by wound healing assay (reference value: 32.0 %); assay type: functional
HCT-116 [18] = test: Inhibition of cell migration in human HCT-116 cells at 20 uM incubated for 48 hrs by wound healing assay (reference value: 42.8 %); assay type: functional
HCT-116 [19] = test: Induction of cell cycle arrest in human HCT-116 cells assessed as accumulation of cells at G2/M phase at 10 to 40 uM incubated for 48 hrs by propidium iodide staining based flow cytometry analysis (reference value: 27.38 %); assay type: functional; details: dose 10-40 µM
HCT-116 [20] = test: Induction of cell cycle arrest in human HCT-116 cells assessed as decrease in cells at G0/G1 phase at 10 to 40 uM incubated for 48 hrs by propidium iodide staining based flow cytometry analysis (reference value: 63.67 %); assay type: functional; design: scale not given: the % may be the effect or the level left; details: dose 10-40 µM
HCT-116 [21] = test: Induction of apoptosis in human HCT-116 cells assessed as viable cells at 5 uM incubated for 48 hrs by Annexin-V and PI staining based flow cytometry analysis (reference value: 98.50%); assay type: functional; details: read-out: Activity
HCT-116 [22] = test: Induction of apoptosis in human HCT-116 cells assessed as early apoptotic cells at 5 uM incubated for 48 hrs by Annexin-V and PI staining based flow cytometry analysis (reference value: 1.26%); assay type: functional
HCT-116 [23] = test: Induction of apoptosis in human HCT-116 cells assessed as late apoptotic cells at 5 uM incubated for 48 hrs by Annexin-V and PI staining based flow cytometry analysis (reference value: 0.06%); assay type: functional
HCT-116 [24] = test: Induction of apoptosis in human HCT-116 cells assessed as necrotic cells at 5 uM incubated for 48 hrs by Annexin-V and PI staining based flow cytometry analysis (reference value: 0.08%); assay type: functional
HCT-116 [25] = test: Induction of apoptosis in human HCT-116 cells assessed as viable cells at 10 uM incubated for 48 hrs by Annexin-V and PI staining based flow cytometry analysis (reference value: 98.50%); assay type: functional; details: read-out: Activity
HCT-116 [26] = test: Induction of apoptosis in human HCT-116 cells assessed as early apoptotic cells at 10 uM incubated for 48 hrs by Annexin-V and PI staining based flow cytometry analysis (reference value: 1.26%); assay type: functional
HCT-116 [27] = test: Induction of apoptosis in human HCT-116 cells assessed as late apoptotic cells at 10 uM incubated for 48 hrs by Annexin-V and PI staining based flow cytometry analysis (reference value: 0.06%); assay type: functional
HCT-116 [28] = test: Induction of apoptosis in human HCT-116 cells assessed as necrotic cells at 10 uM incubated for 48 hrs by Annexin-V and PI staining based flow cytometry analysis (reference value: 0.08%); assay type: functional
HCT-116 [29] = test: Induction of apoptosis in human HCT-116 cells assessed as viable cells at 20 uM incubated for 48 hrs by Annexin-V and PI staining based flow cytometry analysis (reference value: 98.50%); assay type: functional; details: read-out: Activity
HCT-116 [30] = test: Induction of apoptosis in human HCT-116 cells assessed as early apoptotic cells at 20 uM incubated for 48 hrs by Annexin-V and PI staining based flow cytometry analysis (reference value: 1.26%); assay type: functional
HCT-116 [31] = test: Induction of apoptosis in human HCT-116 cells assessed as late apoptotic cells at 20 uM incubated for 48 hrs by Annexin-V and PI staining based flow cytometry analysis (reference value: 0.06%); assay type: functional
HCT-116 [32] = test: Induction of apoptosis in human HCT-116 cells assessed as necrotic cells at 20 uM incubated for 48 hrs by Annexin-V and PI staining based flow cytometry analysis (reference value: 0.08%); assay type: functional

For `NC(=O)c1ccccc1OCc1cccc(NC(=O)Nc2cccc(Br)c2)c1`, the inhibition at 20 µM (MDA-MB-231 [1]) was 78.8%, the inhibition at 20 µM (HCT-116 [2]) was 90.7% and the inhibition at 20 µM (HeLa [3]) was 71.2%. For the same compound, the inhibition at 20 µM (A549 [4]) was 49.3%, the inhibition at 20 µM (A-375 [5]) was 80.8% and the IC50 (MDA-MB-231 [6]) was 14.2 µM. It also gave an IC50 (HeLa [7]) of 13.3 µM, an IC50 (A549 [8]) of 26.4 µM and an IC50 (A-375 [9]) of 19.5 µM. For the same compound, the “Ratio IC50” value (HCT-116 [10]) was 8.93, the IC50 (L02) was 71.1 µM and the IC50 [11] was 0.00606 µM. For the same compound, the inhibition (HCT-116 [12]) was “Dose-Dependent Effect”, the inhibition at 7.5 µM (HCT-116 [13]) was 100% and the inhibition at 10 µM (HCT-116 [14]) was 100%. It also gave an inhibition at 10 µM (HCT-116 [15]) of 23%, an inhibition at 10 µM (HCT-116 [16]) of 25.1% and an inhibition at 20 µM (HCT-116 [17]) of 12%. It also gave an inhibition at 20 µM (HCT-116 [18]) of 19.3%, an Activity (HCT-116 [19]) of 34.14% and an Activity (HCT-116 [20]) of 55.17%. The viability at 5 µM (HCT-116 [21]) was 94.6%, the Activity (HCT-116 [22]) was 4.09% and the Activity (HCT-116 [23]) was 0.77%. The Activity (HCT-116 [24]) was 0.55%, the viability at 10 µM (HCT-116 [25]) was 85% and the Activity (HCT-116 [26]) was 11.56%. The Activity (HCT-116 [27]) was 2.44%, the Activity (HCT-116 [28]) was 0.95% and the viability at 20 µM (HCT-116 [29]) was 58.5%. The Activity (HCT-116 [30]) was 40.51%, the Activity (HCT-116 [31]) was 0.89% and the Activity (HCT-116 [32]) was 0.15%.
